# Source: the SangsterLogP compilation
# Test: not given
# Settings: not given
row,SMILES,logP
1,CCCc1nc(N)nc(N2CCCCC2)n1,2.43
2,C=CCCNc1nc(CCC)nc(N2CCOCC2)n1,2.47

# The next lines start with the values.
row,logP,SMILES
1,2.02,CCCc1nc(NC)nc(N2CCOCC2)n1
2,1.94,CCCc1nc(NCN(C)C)nc(N2CCOCC2)n1
3,2.78,CCCCNc1nc(CCC)nc(N2CCOCC2)n1
4,2.65,CCCc1nc(NCC(C)C)nc(N2CCOCC2)n1

# Test: method code SF-HPLC, from DOI: 10.1016/s0223-5234(98)80011-1
# Settings: pH 7.4
row,SMILES,logD
1,O=S1(=O)CCN(c2nc(CC3CC3)nc(NC3CC3)n2)CC1,1.76
2,OC1CN(c2nc(CC3CC3)nc(NC3CC3)n2)C1,1.71
3,C1CC(Cc2nc(NC3CC3)nc(N3CCOCC3)n2)C1,3.14
4,CC(C)Cc1nc(NC2CC2)nc(N2CC3CCC(C2)O3)n1,3.34
5,OCCN(CCO)c1nc(CC2CC2)nc(NC2CC2)n1,1.82
6,CCCc1nc(NCN2CCCC2=O)nc(N2CCOCC2)n1,1.62
7,CCCCc1nc(NC2CC2)nc(N(CCO)CCO)n1,1.76
8,CCCCc1nc(NC2CC2)nc(N2CC3CCC(C2)O3)n1,3.02
9,O=S1CCN(c2nc(CC3CC3)nc(NC3CC3)n2)CC1,1.56
10,Cc1nc(NC2CC2)nc(N2CC3CCC(C2)O3)n1,1.84
11,CCCCc1nc(NC2CC2)nc(N2CC(O)C2)n1,1.61
12,CCCc1nc(NCC)nc(N2CCCCC2)n1,3.34
13,C1CC1Cc1nc(NC2CC2)nc(N2CC3CCC(C2)O3)n1,3.07
14,COC1CN(c2nc(CC3CC3)nc(NC3CC3)n2)C1,2.37
15,C1CN(c2nc(CC3CC3)nc(NC3CC3)n2)CCO1,2.33
16,C1CCC(Cc2nc(NC3CC3)nc(N3CCOCC3)n2)C1,3.6
17,CCCCc1nc(NC2CC2)nc(N2CCOCC2)n1,2.8

# Continued, values first:
row,logD,SMILES
1,0.67,CCCc1nc(NCCC(=O)N(C)C)nc(N2CCOCC2)n1
2,2.11,CCCc1nc(NC2CC2)nc(N2CCOCC2)n1
3,2.33,CCCc1nc(NC(=O)c2ccccc2)nc(N2CCOCC2)n1
4,2.23,CCCc1nc(NCC)nc(N2CCOCC2)n1
5,3.59,CCCc1nc(NCc2ccccc2OC)nc(N2CCOCC2)n1
6,1.55,CCCc1nc(N)nc(N2CCOCC2)n1
